Results as given in patent US11464795B2, “Saponin compound targeting PD-1 and application thereof” (EAST CHINA UNIVERSITY OF SCIENCE AND TECHNOLOGY, priority 2017, dated 2022).
pKd: −log10 of the molar value.

What was measured:
[1] = target: T1, recombinant human PD-1 protein (Homo sapiens, UniProt Q15116); experiment: SPR determination of binding constants between saponin natural products and PD-1 protein; conditions: PD-1 coupled to CM7 chip, steady-state fitting, read-out: Binding affinity KD
T1 construct: amino acids 34-150 of human PD-1; made in house; host or cells: E. coli BL21 (DE3), pET-28a
T1 sequence (Q15116 34-150): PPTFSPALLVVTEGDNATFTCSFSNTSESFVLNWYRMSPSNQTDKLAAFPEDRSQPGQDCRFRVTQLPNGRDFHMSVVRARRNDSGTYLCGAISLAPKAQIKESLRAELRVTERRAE
Experimental: Surface plasmon resonance (SPR) was used to determine the binding affinity between natural products and PD-1 protein. Specific experimental steps are as follows: Firstly, the purified protein was exchanged into 50 mM Hepes, pH 8.0, 250 mM NaCl, 1 mM DTT buffer, and diluted to 50 μg/ml with sodium acetate pH 4.5. The protein was coupled to CM7 chip with a coupling kit for 600 s at a flow rate of 10 μl/min. The final coupling amount was about 13000 RU. After the coupling was completed, the CM7 chip was equilibrated to a stable state in a buffer solution (1.05×PBS, 0.05% P20). […] The final data was analyzed by BIAevaluation2.0 software, and KD values were obtained by steady-state fitting.

[2] = target: T2, human PD-1 binding to human PD-L1 (Homo sapiens, UniProt Q15116); experiment: SPR competition of compounds with PD-L1 protein for binding PD-1; conditions: PD-L1 on CM5 chip, compound pre-incubated with 3 μM PD-1 protein
T2 construct: amino acids 34-150 of human PD-1; made in house; PD-L1: purchased from Beijing Yiqiao Shenzhou Biotechnology Co., Ltd., no catalogue number
T2 sequence (Q15116 34-150): as above
Experimental: Based on the results in the above examples, the present inventors investigated whether the compound can competite with PD-L1 for binding PD-1, and thus block PD-1 from binding PD-L1. PD-L1 protein was purchased from Beijing Yiqiao Shenzhou Biotechnology Co., Ltd. Specific experimental steps are as follows: 50 μg/ml PD-L1 protein was coupled to CM5 chip by amino coupling method. The coupling amount was about 3780 RU. Compounds of different concentrations were incubated with 3 μM PD-1 protein on ice for 30 min, and flowed across the surface of the chip along with the running buffer (1.05×PBS, 0.05% P20, 1% DMSO) at a flow rate of 30 μL/min, for binding time of 90 s and dissociation time of 120 s. PD-1 protein bound to PD-L1 protein on the chip decreases as the concentration of the compound increases, therefore, the response value decreases. The results of this experiment indicate that compounds can block PD-1 from binding PD-L1.

[3] = test system: Jurkat T cells; experiment: Detection of IL-2 secretion in T cells by ELISA (BxPC-3 / Jurkat T co-culture); assay type: cell-based; conditions: for Restoration of the ability of depleted Jurkat T cells to secrete IL-2: FIG. 5 legend, result in words; for Increase of the amount of IL-2 produced by Jurkat T cells: 50 μM compound, BxPC-3 tumor cells and Jurkat T cells co-cultured 3:1, 48 h, ELISA
Experimental: The inventors selected several compounds for the evaluation experiment of cell function. We co-cultured stimulated BxPC-3 tumor cells and activated Jurkat T cells in a 96-well plate at a ratio of 3:1. Jurkat T cells were cultured alone as a negative control. 50 μM of compound was added into the experimental group, and a D-hank's solution with the same DMSO content was used as a negative control. Each group was incubated in a carbon dioxide cell incubator for 48 h. The supernatant medium was collected and detected for the amount of IL-2 by an ELISA kit. Experiments were performed in triplicate. After tumor cells were co-cultured with T cells, the amount of IL-2 produced by the T cells was suppressed by about 55%. After 50 μM of compound 6 was added, the amount of IL-2 produced by Jurkat T cells can be increased by about 30%; after 50 μM of compound 8 was added, the amount of IL-2 produced by Jurkat T cells can be increased by about 1^7%; after 50 μM of compound 10 was added, the amount of IL-2 produced by Jurkat T cells can be increased by about 30%; after 50 μM of compound 11 was added, the amount of IL-2 produced by Jurkat T cells can be increased by about 12%; and after 50 μM of compound 13 was added, the amount of IL-2 produced by Jurkat T cells can be increased by about 23%. Such effects can be achieved in three repeated experiments. The results of this experiment indicate that the compounds can, to a certain extent, restore the function of T cells.

Structure (SMILES)	pKd [1]	Blocking of human PD-1 binding to human PD-L1 [2]	Restoration of the ability of depleted Jurkat T cells to secrete IL-2 [3]	Increase of the amount of IL-2 produced by Jurkat T cells [3]
C[C@@H]1CC[C@@]2(C(=O)O)CC[C@]3(C)C(=CCC4[C@@]5(C)C[C@@H](O)[C@H](O)C(C)(C)C5CC[C@]43C)C2[C@H]1C (stereo partly drawn) [Compound 8]	5.30	can block human PD-1 from binding to human PD-L1	can restore the ability of depleted Jurkat T cells to secrete IL-2	
CC1(C)CC[C@]2(C(=O)O)CC[C@]3(C)C(=CC[C@@H]4[C@@]5(C)CC[C@H](O)[C@@](C)(CO)[C@@H]5CC[C@]43C)[C@@H]2C1 [Compound 5]	5.27	can block human PD-1 from binding to human PD-L1		
CC1(C)CC[C@]2(C(=O)O)CC[C@]3(C)C(=CCC4[C@@]5(C)CC[C@H](O)C(C)(C)C5CC[C@]43C)C2C1 (stereo partly drawn) [Compound 10]	5.57	can block human PD-1 from binding to human PD-L1	can restore the ability of depleted Jurkat T cells to secrete IL-2	about 30%
C[C@@H]1CC[C@]2(C(=O)O)CC[C@]3(C)C(=CCC4[C@@]5(C)CC[C@H](O)C(C)(C)C5CC[C@]43C)C2[C@H]1C (stereo partly drawn) [Compound 9]	5.31	can block human PD-1 from binding to human PD-L1		
CC1(C)CCC2(C(=O)O)CC[C@]3(C)C(=CCC4[C@@]5(C)C[C@@H](O)[C@H](O)C(C)(C)C5CC[C@]43C)C2C1 (stereo partly drawn) [Compound 12]		can block human PD-1 from binding to human PD-L1		
C[C@@H]1CC[C@]2(C(=O)O)CC[C@]3(C)C(=CC[C@@H]4[C@@]5(C)CC[C@H](O[C@@H]6OC[C@H](O)[C@H](O)[C@H]6O)C(C)(C)[C@@H]5CC[C@]43C)[C@@H]2[C@]1(C)O [Compound 2]	6.36	can block human PD-1 from binding to human PD-L1		
C[C@H]1[C@H](C)CC[C@]2(C(=O)O)CC[C@]3(C)C(=CC[C@@H]4[C@@]5(C)C[C@@H](O)[C@@H](O)C(C)(C)[C@@H]5CC[C@]43C)[C@H]12 [Compound 13]	5.75	can block human PD-1 from binding to human PD-L1	can restore the ability of depleted Jurkat T cells to secrete IL-2	about 23%
C[C@@H]1OC(O[C@H]2C(O[C@H]3CC[C@@]4(C)C(CC[C@]5(C)C4CC=C4C6CC(C)(C)CC[C@]6(C(=O)O)CC[C@]45C)[C@]3(C)CO)OC[C@H](OC3O[C@H](CO)[C@@H](O)[C@H](O)[C@H]3O)[C@@H]2O)[C@H](O)[C@H](O)[C@H]1O (stereo partly drawn) [Compound 3]	5.68			
C[C@@H]1O[C@@H](O[C@H]2[C@H](O[C@H]3[C@H](O[C@H]4CC[C@@]5(C)[C@@H](CC[C@]6(C)[C@@H]5CC=C5[C@@H]7CC(C)(C)C[C@@H](O)[C@]7(C)CC[C@]56C)[C@@]4(C)CO)O[C@H](C(=O)O)[C@@H](O)[C@@H]3O)O[C@H](CO)[C@H](O)[C@@H]2O)[C@H](O)[C@H](O)[C@H]1O [Compound 7]	5.66	can block human PD-1 from binding to human PD-L1		
CC1(C)CC[C@]2(C(=O)O[C@@H]3O[C@H](CO)[C@@H](O)[C@H](O)[C@H]3O)CC[C@]3(C)C(=CCC4[C@@]5(C)CCC(OC6O[C@H](C(=O)O)[C@@H](O)[C@H](O)[C@H]6O)C(C)(C)C5CC[C@]43C)[C@H]2C1 (stereo partly drawn) [Compound 4]	6.25	can block human PD-1 from binding to human PD-L1		
CC1(C)CC[C@]2(C(=O)O)CC[C@]3(C)C(=CC[C@@H]4[C@@]5(C)CC[C@H](O[C@@H]6O[C@H](C(=O)O)[C@@H](O)[C@H](O[C@@H]7OC[C@@H](O)[C@H](O)[C@H]7O)[C@H]6O)C(C)(C)[C@@H]5CC[C@]43C)[C@@H]2C1 [Compound 6]	7.40	can block human PD-1 from binding to human PD-L1	can restore the ability of depleted Jurkat T cells to secrete IL-2	about 30%
C[C@H]1[C@H](C)CC[C@]2(C(=O)O)CC[C@]3(C)C(=CC[C@@H]4[C@@]5(C)C[C@@H](O)[C@H](O)C(C)(C)[C@@H]5CC[C@]43C)[C@H]12 [Compound 11]	5.85	can block human PD-1 from binding to human PD-L1	can restore the ability of depleted Jurkat T cells to secrete IL-2	about 12%
CC1(C)CC[C@]2(C(=O)O[C@@H]3O[C@H](CO)[C@@H](O)[C@H](O)[C@H]3O)CC[C@]3(C)C(=CC[C@@H]4[C@@]5(C)CC[C@H](OC6O[C@H](C(=O)O)[C@@H](O)[C@H](O)[C@H]6OC6O[C@H](CO)[C@@H](O)[C@H](O)[C@H]6O)C(C)(C)[C@@H]5CC[C@]43C)[C@@H]2C1 (stereo partly drawn) [Compound 1]	5.65	can block human PD-1 from binding to human PD-L1		
